# According to patent US11147792B2, “Inhibitors of microbially induced amyloid” (Axial Therapeutics, Inc, priority 2017, dated 2021):
# “Also recorded” adds a separate entry of the source. Where two headings read alike, the source gives them in different places.
# Columns and labels:
# human α-synuclein = biological target: T1, human α-synuclein (Homo sapiens, UniProt P37840); assay: In vitro Thioflavin T assay of α-synuclein aggregation; assay type: biochemical; settings: compounds at 50 μM, 50 μM α-synuclein, ThT fluorescence at 40 hours
# T1 construct: made in house; host or cells: E. coli
# Description: In Vitro Thioflavin T Assay to Determine the Effects of Compounds on α-Synuclein Aggregation.
# The ammonium sulfate pellet was washed with an equal volume of 100 mM ammonium acetate in ethanol, pelleted via centrifugation, washed twice with ethanol, dried overnight, resuspended in 10 mM Tris pH 7.4, and passed through a 50 kDa cut-off column. The assay was conducted in 96-well black microplates with a single 2 mm bead in each well, 40 μM ThioflavinT, 1% DMSO, 50 μM α-synuclein, 100 mM sodium chloride, 9.3 mM potassium phosphate pH 7.3, 4.6 mM Tris pH 7.4 (added as the solvent for α-synuclein or independently for controls lacking α-synuclein), and compounds at 1 μM or 50 μM. […] Readings were performed hourly for up to 73 hours. The effect of compounds on α-synuclein aggregation in the assay was determined with data from 40 hours, following the plateau of the fluorescent signal in the untreated (no compound) control wells containing α-synuclein. Fluorescence values for each compound with α-synuclein were first adjusted by subtracting the average fluorescence of the compound in the absence of α-synuclein.
# E. coli CsgA = biological target: T2, E. coli CsgA (Escherichia coli, UniProt P28307); assay: In vitro ThioflavinT assay of CsgA aggregation; assay type: biochemical; settings: CsgA at 20 μM, ThT fluorescence at 18 hours
# T2 construct: made in house; host or cells: E. coli NEB 3016 slyD::kan, pET11d
# T2 sequence (P28307 23-151): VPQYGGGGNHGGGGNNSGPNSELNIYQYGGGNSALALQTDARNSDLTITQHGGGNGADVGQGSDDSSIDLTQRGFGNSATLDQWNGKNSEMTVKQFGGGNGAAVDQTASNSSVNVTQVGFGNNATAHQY
# Description: In Vitro ThioflavinT Assay to Determine Effects of Compounds on CsgA Aggregation.
# To assess the effects of compounds on aggregation of E. coli CsgA, a cell-free assay was performed using purified CsgA and Thioflavin T. In the assay, histidine-tagged CsgA was over-expressed in E. coli NEB 3016 slyD::kan cells harboring a pET11d vector containing csgA with the sequence for 6 histidine residues added to the C-terminus and without the Sec signal (amino acid 1-22) sequence. To induce over-expression of CsgA, 0.5 mM isopropyl β-D-1-thiogalactopyranoside (“IPTG”) was added to cultures with an optical density at 600 nm (OD600) of 0.8-1, and induced cells were cultured at 37° C. for 1 hour prior to harvest via centrifugation. Cells were lysed under denaturing conditions with 8 M guanidine hydrochloride in 50 mM potassium phosphate buffer pH 7.3, and CsgA was purified via immobilized-metal affinity chromatography by batch purification with Nickel-NTA agarose and a combination of low pressure and gravity flow through a disposable polypropylene column, including washes under low pressure applied manually via application of a syringe plunger to the column with 50 mM potassium phosphate buffer pH 7.3 followed by 12.5 mM imidazole in 50 mM potassium phosphate buffer pH 7.3, and elution by gravity flow with 125 mM imidazole in 50 mM potassium phosphate buffer pH 7.3. Buffers with imidazole were freshly prepared prior to the protein purification. Purified CsgA was passed through a 30 kDa molecular weight cut-off filter and passed through a desalting column. All steps of the CsgA purification in the absence of guanidine hydrochloride were conducted in rapid succession with as little delay as possible. The assay was conducted in 96-well black microplates with 40 μM ThioflavinT, 1% DMSO, CsgA at 20 μM, and compounds at 20 μM. Plates were incubated at 25° C. in a Tecan Nano F200 plate reader with excitation at 438 nm using a 439 nm filter with a bandwidth of 8 nm, and emission at 495 nm with a 490 nm filter with a bandwidth of 10 nm. During the assay, plates were shaken initially for 5 seconds and subsequently for 3 seconds prior to fluorescent readings. Readings were performed every 20 minutes for up to 24 hours. The effect of compounds on CsgA aggregation in the assay was determined with data from 18 hours, following the plateau of the fluorescent signal in the untreated (no compound) control wells containing CsgA. Fluorescence values for each compound with CsgA were first adjusted by subtracting the average fluorescence of the compound in the absence of CsgA. These adjusted values were normalized by dividing them by the average fluorescence in the no-compound (i.e., untreated) control wells containing CsgA […], and the average normalized fluorescence with the compound was expressed as a percentage of the average fluorescence observed in untreated controls.
# [1] = system: αSyn aggregates in brain of Thy1-αSyn mice (ASO); assay: Brain αSyn aggregates in germ-free ASO mice mono-colonized with WT E. coli, EGCG in drinking water; assay type: in vivo, mouse; settings: EGCG-treated vs vehicle
# Description: Germ-free Thy1-αSyn mice (ASO) mono-colonized with WT E. coli at 5-6 weeks of age, and given water alone (Vehicle: Veh) or treated with EGCG ad lib in drinking water (+EGCG). RNA was extracted from fecal pellets and csgA expression quantified by qRT-PCR, relative to rrsA. FIG. 1C is a graph showing fold-change in csgA expression. Motor function was assessed at 15-16 weeks of age by quantifying beam traversal time (FIG. 1D), pole descent time (FIG. 1E), nasal adhesive removal time (FIG. 1F), hindlimb clasping score (FIG. 1G), and wire hang tests (FIG. 1H). Time to cross, time to descent, time to remove, and hindlimb score were lower in the EGCG-treated mice, while time to fall was higher in the EGCG-treated mice compared to vehicle treated control. […]
# FIGS. 1L-M show quantification of insoluble αSyn fibrils in the striatum (FIG. 1L) and ventral midbrain (FIG. 1M) by dot blot assay. Thin sections of brain were stained for Iba1 (microglia), 3D cellular reconstructions generated, and morphological characteristics quantified from microglia resident in the striatum (FIG. 1N) and substantia and nigra (FIG. 1O). n=3 (FIGS. 1A, 1B, 1N, 1O), n=8 (FIG. 1C), n=10-11 (FIGS. 1D-I), n=4 (FIGS. 1L-M). […] Data analyzed by one-way ANOVA with Tukey post-hoc test for FIG. 1A, two-tailed Mann-Whitney for FIGs. […]
structure (smiles),measurement,setting,value
"O=C(O[C@@H]1Cc2c(O)cc(O)cc2O[C@@H]1c1cc(O)c(O)c(O)c1)c1cc(O)c(O)c(O)c1 [EGCG, epigallocatechin gallate]",inhibition at 50 µM,human α-synuclein; read-out: Inhibition of Aggregation αSyn,99%
same,inhibition at 50 µM,human α-synuclein; read-out: Inhibition of Aggregation αSyn (compound activity range),> 60%
same,inhibition at 20 µM,"E. coli CsgA; read-out: Inhibition of Aggregation CsgA (compound activity range), compounds at 20 μM",30 to 60%
same,inhibition at 20 µM,"E. coli CsgA; read-out: Inhibition of Aggregation CsgA, compounds at 20 μM",56%
same,αSyn aggregation in striatum and midbrain,[1],preventing αSyn aggregation in both the striatum and midbrain
same,Proteinase K resistant αSyn aggregates in the substantia nigra,[1]; immunofluorescence microscopy,lower; also recorded: Fewer
